In patent publication CN109475563A, “蛋白酶抑制剂的长效医药组合物” (Taimed Biologics Inc, priority 2016, dated 2017):

Legend:
[1] = Rat subcutaneous PK, microparticle vs nanosuspension of TMB-607; format: in vivo; settings: SC
[2] = Dog PK, intramuscular vs subcutaneous nanosuspension of TMB-607; format: in vivo, beagle dog; settings: Fig. 3
[3] = Monkey PK, nanosuspensions of different particle size; format: in vivo
[4] = PK of injectable nanosized TMB-607 (summary statement); format: in vivo; settings: injectable formulation of nanosized TMB-607; species not stated
[5] = molecular target: HIV-1 protease (HIV-1蛋白酶) (Human immunodeficiency virus type 1 group M subtype B, UniProt P04585); settings: cited from earlier work
[6] = tested on: laboratory-adapted virus (实验室适应病毒); settings: 48-week in vitro selection, increasing TMB-607 concentration; cited from earlier work
[7] = tested on: single mutations in the protease open reading frame (蛋白酶开放读框); settings: in vitro, site-directed mutagenesis; cited from earlier work
[8] = male beagle dog, 60 mg/kg, particle size about 150 nm, 6 weeks

COC(=O)N[C@H](C(=O)NCCCC[C@@H](CO)N(CC(C)C)S(=O)(=O)c1ccc(N)cc1)C(c1ccccc1)c1ccccc1 [TMB-607]
duration of plasma level above protein-binding-adjusted EC50 ([1]; nano-sized TMB-607, printed as 247 nm, Fig. 2): 14 days
duration for which TMB-607 plasma level is maintained ([1]; nanosuspension printed as 247 nm, compared with microparticle 2470 nm, Fig. 2): > 14 days
plasma level above protein-binding-adjusted EC50 for 14 days (in words) ([1]; microparticle 2470 nm, Fig. 2 (general description)): 不能
Cmax in the initial period (in words) ([1]; rat, microparticle 2470 nm, 16.7 mg/kg): 引人注目的高Cmax
plasma level above protein-binding-adjusted EC50 for 14 days (in words) ([1]; rat, microparticle 2470 nm, 16.7 mg/kg, Fig. 2): 不能
release profile (in words) ([1]; rat, nanosuspension 240 nm, 23.5 mg/kg): 持续的释放曲线
duration of plasma level above protein-binding-adjusted EC50 ([1]; rat, nanosuspension 240 nm, doses printed for microparticle and nanosuspension 16.7 and 23.5 mg/kg respectively, Fig. 2): 14 days
AUC0-t, SC versus IM (in words) [2, 8]: 没有在AUC0-t值中观察到明显的差异
Cmax, IM versus SC (in words) [2, 8]: 肌肉给药路径的Cmax值高于皮下给药路径的Cmax值
plasma level after single IM or SC injection (in words) ([2]; single IM or SC injection of nanosuspension): 延长了TMB-607的血浆水平
plasma level and duration of action, smaller particle size (in words) ([3]; 113 nm compared with 214 nm): 较高的血浆水平和较长的作用时间
plasma level and duration of action, smaller particles (in words) ([3]; monkey, 60 mg/kg, 113 nm versus 214 nm, Fig. 4): 较高的血浆水平和较长的作用时间
AUC0-t on reducing particle size (in words) ([3]; monkey, injected nanosuspension, 60 mg/kg, 214 nm versus 113 nm, 4 weeks): AUC0-t和t1/2均大致增加
plasma level (in words) ([3]; particle sizes 214 nm and 113 nm): 都可以延长血浆水平
duration of stable plasma levels [4]: > 1 month
inhibition of HIV-1 protease (potency, in words) [5]: 效用 and 有效
selectivity in inhibiting HIV-1 protease (in words) [5]: 选择性 and 有选择性
mutations selected in protease open reading frame [6]: 四个突变
resistance caused by single mutation (in words) [7]: 单一突变不会导致对TMB-607的明显抗药性
